Laboratory results published in ChEMBL document CHEMBL3885881, “DrugMatrix”.

Species: Rattus norvegicus
Test: DrugMatrix - Regimen: Daily Repeat
Type: toxicity, organism-based, Sprague-Dawley
Design: regimen Daily Repeat, gender Male, age 6-8 weeks
Conditions: in vivo, po, route oral GAVAGE, vehicle 100 % WATER; for BASOPHIL / EOSINOPHIL / ERYTHROCYTE COUNT / HEMATOCRIT / HEMOGLOBIN / LEUKOCYTE COUNT / LYMPHOCYTE / MEAN CORPUSCULAR HEMOGLOBIN / MEAN CORPUSCULAR HEMOGLOBIN CONCENTRATION / MEAN CORPUSCULAR VOLUME / MONOCYTE / NEUTROPHIL / PLATELET COUNT: tissue Blood; for ALANINE AMINOTRANSFERASE / ALBUMIN / ALKALINE PHOSPHATASE / ASPARTATE AMINOTRANSFERASE / BLOOD UREA NITROGEN / CHLORIDE / CHOLESTEROL / CREATINE PHOSPHOKINASE / CREATININE / GLUCOSE / PHOSPHORUS / POTASSIUM / SODIUM / TOTAL BILIRUBIN / TOTAL PROTEIN: tissue Plasma
[1] = 0 mg/kg, 72 h, dose level Control, time 3 day
[2] = 0 mg/kg, 120 h, dose level Control, time 5 day
[3] = 53.5 mg/kg, 72 h, dose level Low, time 3 day
[4] = 53.5 mg/kg, 120 h, dose level Low, time 5 day
[5] = 535 mg/kg, 72 h, dose level High, time 3 day
[6] = 535 mg/kg, 120 h, dose level High, time 5 day

CN1C(=O)OC(C)(C)C1=O [TRIMETHADIONE]
BASOPHIL [1]: 0%
EOSINOPHIL [1]: 0.5%
ERYTHROCYTE COUNT [1]: 5.8 x10E6/uL
HEMATOCRIT [1]: 35.07%
HEMOGLOBIN [1]: 14.12 G/DL
LEUKOCYTE COUNT [1]: 13.7 x10E3/uL
LYMPHOCYTE [1]: 82.33%
MEAN CORPUSCULAR HEMOGLOBIN [1]: 24.38 pg
MEAN CORPUSCULAR HEMOGLOBIN CONCENTRATION [1]: 40.28 G/DL
MEAN CORPUSCULAR VOLUME [1]: 60.52 fL
MONOCYTE [1]: 2.67%
NEUTROPHIL [1]: 14.5%
PLATELET COUNT [1]: 911.5 x10E3/uL
ALANINE AMINOTRANSFERASE [1]: 36.83 u/L
ALBUMIN [1]: 3.75 G/DL
ALKALINE PHOSPHATASE [1]: 399.83 u/L
ASPARTATE AMINOTRANSFERASE [1]: 66 u/L
BLOOD UREA NITROGEN [1]: 14.67 mg/dL
CHLORIDE [1]: 101.67 MEQ/L
CHOLESTEROL [1]: 66.33 mg/dL
CREATINE PHOSPHOKINASE [1]: 139.5 u/L
CREATININE [1]: 0.92 mg/dL
GLUCOSE [1]: 175 mg/dL
PHOSPHORUS [1]: 11.42 mg/dL
POTASSIUM [1]: 7.03 MEQ/L
SODIUM [1]: 148.5 MEQ/L
TOTAL BILIRUBIN [1]: 1.13 mg/dL
TOTAL PROTEIN [1]: 6.87 G/DL
BASOPHIL [2]: 0%
EOSINOPHIL [2]: 0.2%
ERYTHROCYTE COUNT [2]: 6.02 x10E6/uL
HEMATOCRIT [2]: 36.48%
HEMOGLOBIN [2]: 14.38 G/DL
LEUKOCYTE COUNT [2]: 12.34 x10E3/uL
LYMPHOCYTE [2]: 83%
MEAN CORPUSCULAR HEMOGLOBIN [2]: 23.92 pg
MEAN CORPUSCULAR HEMOGLOBIN CONCENTRATION [2]: 39.44 G/DL
MEAN CORPUSCULAR VOLUME [2]: 60.66 fL
MONOCYTE [2]: 3%
NEUTROPHIL [2]: 13.8%
PLATELET COUNT [2]: 1190.6 x10E3/uL
ALANINE AMINOTRANSFERASE [2]: 43 u/L
ALBUMIN [2]: 3.73 G/DL
ALKALINE PHOSPHATASE [2]: 393 u/L
ASPARTATE AMINOTRANSFERASE [2]: 62.33 u/L
BLOOD UREA NITROGEN [2]: 16.33 mg/dL
CHLORIDE [2]: 101.67 MEQ/L
CHOLESTEROL [2]: 65.5 mg/dL
CREATINE PHOSPHOKINASE [2]: 130.67 u/L
CREATININE [2]: 0.58 mg/dL
GLUCOSE [2]: 180.67 mg/dL
PHOSPHORUS [2]: 11.28 mg/dL
POTASSIUM [2]: 7.05 MEQ/L
SODIUM [2]: 148.17 MEQ/L
TOTAL BILIRUBIN [2]: 0.72 mg/dL
TOTAL PROTEIN [2]: 6.83 G/DL
BASOPHIL [3]: 0%
EOSINOPHIL [3]: 0.5%
ERYTHROCYTE COUNT [3]: 6.33 x10E6/uL
HEMATOCRIT [3]: 38.05%
HEMOGLOBIN [3]: 15.05 G/DL
LEUKOCYTE COUNT [3]: 12.85 x10E3/uL
LYMPHOCYTE [3]: 83.5%
MEAN CORPUSCULAR HEMOGLOBIN [3]: 23.8 pg
MEAN CORPUSCULAR HEMOGLOBIN CONCENTRATION [3]: 39.55 G/DL
MEAN CORPUSCULAR VOLUME [3]: 60.15 fL
MONOCYTE [3]: 3.5%
NEUTROPHIL [3]: 12.5%
PLATELET COUNT [3]: 1304.5 x10E3/uL
ALANINE AMINOTRANSFERASE [3]: 36.5 u/L
ALBUMIN [3]: 3.7 G/DL
ALKALINE PHOSPHATASE [3]: 313 u/L
ASPARTATE AMINOTRANSFERASE [3]: 61.5 u/L
BLOOD UREA NITROGEN [3]: 12 mg/dL
CHLORIDE [3]: 101 MEQ/L
CHOLESTEROL [3]: 59 mg/dL
CREATINE PHOSPHOKINASE [3]: 136 u/L
CREATININE [3]: 0.55 mg/dL
GLUCOSE [3]: 210.5 mg/dL
PHOSPHORUS [3]: 13 mg/dL
POTASSIUM [3]: 6.85 MEQ/L
SODIUM [3]: 151 MEQ/L
TOTAL BILIRUBIN [3]: 0.35 mg/dL
TOTAL PROTEIN [3]: 6.65 G/DL
BASOPHIL [4]: 0%
EOSINOPHIL [4]: 0%
ERYTHROCYTE COUNT [4]: 6.06 x10E6/uL
HEMATOCRIT [4]: 36.17%
HEMOGLOBIN [4]: 14.4 G/DL
LEUKOCYTE COUNT [4]: 18.23 x10E3/uL
LYMPHOCYTE [4]: 83.33%
MEAN CORPUSCULAR HEMOGLOBIN [4]: 23.8 pg
MEAN CORPUSCULAR HEMOGLOBIN CONCENTRATION [4]: 39.83 G/DL
MEAN CORPUSCULAR VOLUME [4]: 59.7 fL
MONOCYTE [4]: 2.33%
NEUTROPHIL [4]: 14.33%
PLATELET COUNT [4]: 1288 x10E3/uL
ALANINE AMINOTRANSFERASE [4]: 36.67 u/L
ALBUMIN [4]: 3.57 G/DL
ALKALINE PHOSPHATASE [4]: 314 u/L
ASPARTATE AMINOTRANSFERASE [4]: 59 u/L
BLOOD UREA NITROGEN [4]: 12 mg/dL
CHLORIDE [4]: 102.33 MEQ/L
CHOLESTEROL [4]: 70.67 mg/dL
CREATINE PHOSPHOKINASE [4]: 109.33 u/L
CREATININE [4]: 0.6 mg/dL
GLUCOSE [4]: 190.67 mg/dL
PHOSPHORUS [4]: 13.13 mg/dL
POTASSIUM [4]: 6.6 MEQ/L
SODIUM [4]: 151.33 MEQ/L
TOTAL BILIRUBIN [4]: 0.3 mg/dL
TOTAL PROTEIN [4]: 6.5 G/DL
BASOPHIL [5]: 0%
EOSINOPHIL [5]: 0%
ERYTHROCYTE COUNT [5]: 6.23 x10E6/uL
HEMATOCRIT [5]: 37.4%
HEMOGLOBIN [5]: 14.63 G/DL
LEUKOCYTE COUNT [5]: 13.2 x10E3/uL
LYMPHOCYTE [5]: 82.67%
MEAN CORPUSCULAR HEMOGLOBIN [5]: 23.5 pg
MEAN CORPUSCULAR HEMOGLOBIN CONCENTRATION [5]: 39.13 G/DL
MEAN CORPUSCULAR VOLUME [5]: 60 fL
MONOCYTE [5]: 5.67%
NEUTROPHIL [5]: 11.67%
PLATELET COUNT [5]: 1178.33 x10E3/uL
ALANINE AMINOTRANSFERASE [5]: 42.67 u/L
ALBUMIN [5]: 3.63 G/DL
ALKALINE PHOSPHATASE [5]: 285 u/L
ASPARTATE AMINOTRANSFERASE [5]: 71 u/L
BLOOD UREA NITROGEN [5]: 12.67 mg/dL
CHLORIDE [5]: 98.33 MEQ/L
CHOLESTEROL [5]: 72 mg/dL
CREATINE PHOSPHOKINASE [5]: 136.33 u/L
CREATININE [5]: 0.57 mg/dL
GLUCOSE [5]: 181.33 mg/dL
PHOSPHORUS [5]: 12.93 mg/dL
POTASSIUM [5]: 6.83 MEQ/L
SODIUM [5]: 152 MEQ/L
TOTAL BILIRUBIN [5]: 0.27 mg/dL
BASOPHIL [6]: 0%
EOSINOPHIL [6]: 0.33%
ERYTHROCYTE COUNT [6]: 5.77 x10E6/uL
HEMATOCRIT [6]: 33.97%
HEMOGLOBIN [6]: 13.13 G/DL
LEUKOCYTE COUNT [6]: 10.67 x10E3/uL
LYMPHOCYTE [6]: 78.67%
MEAN CORPUSCULAR HEMOGLOBIN [6]: 22.8 pg
MEAN CORPUSCULAR HEMOGLOBIN CONCENTRATION [6]: 38.67 G/DL
MEAN CORPUSCULAR VOLUME [6]: 58.97 fL
MONOCYTE [6]: 2.67%
NEUTROPHIL [6]: 18.33%
PLATELET COUNT [6]: 1123.33 x10E3/uL
ALANINE AMINOTRANSFERASE [6]: 42 u/L
ALBUMIN [6]: 3.67 G/DL
ALKALINE PHOSPHATASE [6]: 272.33 u/L
ASPARTATE AMINOTRANSFERASE [6]: 78.33 u/L
BLOOD UREA NITROGEN [6]: 14.67 mg/dL
CHLORIDE [6]: 99.33 MEQ/L
CHOLESTEROL [6]: 74.33 mg/dL
CREATINE PHOSPHOKINASE [6]: 143.67 u/L
CREATININE [6]: 0.57 mg/dL
GLUCOSE [6]: 180.33 mg/dL
PHOSPHORUS [6]: 13.1 mg/dL
POTASSIUM [6]: 6.6 MEQ/L
SODIUM [6]: 153.33 MEQ/L
TOTAL BILIRUBIN [6]: 0.27 mg/dL
TOTAL PROTEIN [6]: 6.53 G/DL
